Data published in ChEMBL document CHEMBL1136464, “Array synthesis of novel lipodepsipeptide” (Bioorg Med Chem Lett, 2003).
Converted amounts (≈) assume the structure as drawn.

How the values were obtained:
Type in all cases: functional
Enterococcus faecium [1] = experiment: Antibacterial activity against Enterococcus faecium ATCC 49452 at 10 % serum; conditions: ATCC 49452, Serum
Enterococcus faecium [2] = experiment: Antibacterial activity against Enterococcus faecium ATCC 49452 at 0 % serum
Staphylococcus aureus [3] = experiment: Antibacterial activity against methicillin susceptible staphylococcus aureus ATCC 29213 at 0 % serum
Staphylococcus aureus [4] = experiment: Antibacterial activity against methicillin-resistant staphylococcus aureus ATCC 43300 at 10 % serum
Enterococcus faecalis [5] = experiment: Antibacterial activity against Enterococcus faecalis ATCC 6569 at 10 % serum; conditions: ATCC 6569, Serum
Enterococcus faecalis [6] = experiment: Antibacterial activity against Enterococcus faecalis ATCC 6569 at 0 % serum
Staphylococcus aureus [7] = experiment: Antibacterial activity against methicillin-resistant staphylococcus aureus ATCC 43300 at 0 % serum
Staphylococcus aureus [8] = experiment: Antibacterial activity against methicillin susceptible staphylococcus aureus ATCC 29213 at 10 % serum

SMILES | MIC (Enterococcus faecium [1]) [µg/mL] | MIC (Enterococcus faecium [2]) [µg/mL] | MIC (Staphylococcus aureus [3]) [µg/mL] | MIC (Staphylococcus aureus [4]) [µg/mL] | MIC (Enterococcus faecalis [5]) [µg/mL] | MIC (Enterococcus faecalis [6]) [µg/mL] | MIC (Staphylococcus aureus [7]) [µg/mL] | MIC (Staphylococcus aureus [8]) [µg/mL]
CCCCCCCCCC(=O)N[C@@H](Cc1c[nH]c2ccccc12)C(=O)N[C@H](CC(N)=O)C(=O)N[C@@H](CCO)C(=O)N[C@@H]1C(=O)NCC(=O)N[C@@H](CCCNCc2ccc(C(=O)N3CCN(c4ccccc4)CC3)cc2)C(=O)N[C@@H](CC(=O)O)C(=O)N[C@H](C)C(=O)N[C@@H](CC(=O)O)C(=O)NCC(=O)N[C@H](CO)C(=O)N[C@@H]([C@H](C)CC(=O)O)C(=O)N[C@@H](CC(=O)c2ccccc2N)C(=O)O[C@@H]1C | 6.25 (≈ 3.32 µM) | 6.25 (≈ 3.32 µM) | 0.78 (≈ 0.414 µM) | 1.56 (≈ 0.828 µM) | 6.25 (≈ 3.32 µM) | 3.13 (≈ 1.66 µM) | 0.78 (≈ 0.414 µM) | 1.56 (≈ 0.828 µM)
CCCCCCCCCC(=O)N[C@@H](Cc1c[nH]c2ccccc12)C(=O)N[C@H](CC(N)=O)C(=O)N[C@@H](CCO)C(=O)N[C@@H]1C(=O)NCC(=O)N[C@@H](CCCNCc2ccc(S(=O)(=O)NCc3ccc(C(F)(F)F)cc3)cc2)C(=O)N[C@@H](CC(=O)O)C(=O)N[C@H](C)C(=O)N[C@@H](CC(=O)O)C(=O)NCC(=O)N[C@H](CO)C(=O)N[C@@H]([C@H](C)CC(=O)O)C(=O)N[C@@H](CC(=O)c2ccccc2N)C(=O)O[C@@H]1C | 6.25 (≈ 3.23 µM) | 0.39 (≈ 0.202 µM) | 0.78 (≈ 0.403 µM) | 0.78 (≈ 0.403 µM) | 6.25 (≈ 3.23 µM) | 0.78 (≈ 0.403 µM) | 0.39 (≈ 0.202 µM) | 3.13 (≈ 1.62 µM)
CCCCCCCCCC(=O)N[C@@H](Cc1c[nH]c2ccccc12)C(=O)N[C@H](CC(N)=O)C(=O)N[C@@H](CCO)C(=O)N[C@@H]1C(=O)NCC(=O)N[C@@H](CCCNCc2ccc(/C=C/C(=O)N3CCN(c4ccc(Cl)c(Cl)c4)CC3)cc2)C(=O)N[C@@H](CC(=O)O)C(=O)N[C@H](C)C(=O)N[C@@H](CC(=O)O)C(=O)NCC(=O)N[C@H](CO)C(=O)N[C@@H]([C@H](C)CC(=O)O)C(=O)N[C@@H](CC(=O)c2ccccc2N)C(=O)O[C@@H]1C | 50 (≈ 25.3 µM) | 1.56 (≈ 0.788 µM) | 0.78 (≈ 0.394 µM) | 12.5 (≈ 6.31 µM) | 50 (≈ 25.3 µM) | 1.56 (≈ 0.788 µM) | 0.78 (≈ 0.394 µM) | 12.5 (≈ 6.31 µM)
CCCCCCCCCC(=O)N[C@@H](Cc1c[nH]c2ccccc12)C(=O)N[C@H](CC(N)=O)C(=O)N[C@@H](CCO)C(=O)N[C@@H]1C(=O)NCC(=O)N[C@@H](CCCNCc2ccc(C(=O)N3CCN(Cc4ccccc4)CC3)cc2)C(=O)N[C@@H](CC(=O)O)C(=O)N[C@H](C)C(=O)N[C@@H](CC(=O)O)C(=O)NCC(=O)N[C@H](CO)C(=O)N[C@@H]([C@H](C)CC(=O)O)C(=O)N[C@@H](CC(=O)c2ccccc2N)C(=O)O[C@@H]1C | 6.25 (≈ 3.29 µM) | 3.13 (≈ 1.65 µM) | 0.78 (≈ 0.411 µM) | 0.39 (≈ 0.205 µM) | 6.25 (≈ 3.29 µM) | 6.25 (≈ 3.29 µM) | 0.39 (≈ 0.205 µM) | 0.78 (≈ 0.411 µM)
CCCCCCCCCC(=O)N[C@@H](Cc1c[nH]c2ccccc12)C(=O)N[C@H](CC(N)=O)C(=O)N[C@@H](CCO)C(=O)N[C@@H]1C(=O)NCC(=O)N[C@@H](CCCNCc2nccs2)C(=O)N[C@@H](CC(=O)O)C(=O)N[C@H](C)C(=O)N[C@@H](CC(=O)O)C(=O)NCC(=O)N[C@H](CO)C(=O)N[C@@H]([C@H](C)CC(=O)O)C(=O)N[C@@H](CC(=O)c2ccccc2N)C(=O)O[C@@H]1C | 6.25 (≈ 3.67 µM) | 6.24 (≈ 3.66 µM) | 0.78 (≈ 0.458 µM) | 0.78 (≈ 0.458 µM) | 12.5 (≈ 7.34 µM) | 6.25 (≈ 3.67 µM) | 0.78 (≈ 0.458 µM) | 1.56 (≈ 0.916 µM)
CCCCCCCCCC(=O)N[C@@H](Cc1c[nH]c2ccccc12)C(=O)N[C@H](CC(N)=O)C(=O)N[C@@H](CCO)C(=O)N[C@@H]1C(=O)NCC(=O)N[C@@H](CCCNCc2ccc(C(=O)N3CCN(c4ccc(F)cc4)CC3)cc2)C(=O)N[C@@H](CC(=O)O)C(=O)N[C@H](C)C(=O)N[C@@H](CC(=O)O)C(=O)NCC(=O)N[C@H](CO)C(=O)N[C@@H]([C@H](C)CC(=O)O)C(=O)N[C@@H](CC(=O)c2ccccc2N)C(=O)O[C@@H]1C | 6.25 (≈ 3.28 µM) | 6.25 (≈ 3.28 µM) | 0.78 (≈ 0.41 µM) | 0.78 (≈ 0.41 µM) | 6.25 (≈ 3.28 µM) | 3.13 (≈ 1.64 µM) | 0.78 (≈ 0.41 µM) | 1.56 (≈ 0.82 µM)
CCCCCCCCCC(=O)N[C@@H](Cc1c[nH]c2ccccc12)C(=O)N[C@H](CC(N)=O)C(=O)N[C@@H](CCO)C(=O)N[C@@H]1C(=O)NCC(=O)N[C@@H](CCCNCc2ccc(OCc3ccccc3)cc2)C(=O)N[C@@H](CC(=O)O)C(=O)N[C@H](C)C(=O)N[C@@H](CC(=O)O)C(=O)NCC(=O)N[C@H](CO)C(=O)N[C@@H]([C@H](C)CC(=O)O)C(=O)N[C@@H](CC(=O)c2ccccc2N)C(=O)O[C@@H]1C | 25 (≈ 13.9 µM) | 3.13 (≈ 1.74 µM) | 0.78 (≈ 0.433 µM) | 6.25 (≈ 3.47 µM) | 12.5 (≈ 6.93 µM) | 1.56 (≈ 0.865 µM) | 0.78 (≈ 0.433 µM) | 6.25 (≈ 3.47 µM)
CCCCCCCCCC(=O)N[C@@H](Cc1c[nH]c2ccccc12)C(=O)N[C@H](CC(N)=O)C(=O)N[C@@H](CCO)C(=O)N[C@@H]1C(=O)NCC(=O)N[C@@H](CCCNCc2ccc(F)cc2F)C(=O)N[C@@H](CC(=O)O)C(=O)N[C@H](C)C(=O)N[C@@H](CC(=O)O)C(=O)NCC(=O)N[C@H](CO)C(=O)N[C@@H]([C@H](C)CC(=O)O)C(=O)N[C@@H](CC(=O)c2ccccc2N)C(=O)O[C@@H]1C | 25 (≈ 14.4 µM) | 6.25 (≈ 3.61 µM) | 1.56 (≈ 0.9 µM) | 0.78 (≈ 0.45 µM) | 12.5 (≈ 7.21 µM) | 6.25 (≈ 3.61 µM) | 0.78 (≈ 0.45 µM) | 3.13 (≈ 1.81 µM)
CCCCCCCCCC(=O)N[C@@H](Cc1c[nH]c2ccccc12)C(=O)N[C@H](CC(N)=O)C(=O)N[C@@H](CCO)C(=O)N[C@@H]1C(=O)NCC(=O)N[C@@H](CCCNCc2ccc(N3CCN(Cc4ccccc4)CC3)cc2)C(=O)N[C@@H](CC(=O)O)C(=O)N[C@H](C)C(=O)N[C@@H](CC(=O)O)C(=O)NCC(=O)N[C@H](CO)C(=O)N[C@@H]([C@H](C)CC(=O)O)C(=O)N[C@@H](CC(=O)c2ccccc2N)C(=O)O[C@@H]1C | 25 (≈ 13.4 µM) | 12.5 (≈ 6.68 µM) | 0.78 (≈ 0.417 µM) | 0.78 (≈ 0.417 µM) | 12.5 (≈ 6.68 µM) | 6.25 (≈ 3.34 µM) | 0.78 (≈ 0.417 µM) | 0.78 (≈ 0.417 µM)
CCCCCCCCCC(=O)N[C@@H](Cc1c[nH]c2ccccc12)C(=O)N[C@H](CC(N)=O)C(=O)N[C@@H](CCO)C(=O)N[C@@H]1C(=O)NCC(=O)N[C@@H](CCCNCc2cccc([N+](=O)[O-])c2)C(=O)N[C@@H](CC(=O)O)C(=O)N[C@H](C)C(=O)N[C@@H](CC(=O)O)C(=O)NCC(=O)N[C@H](CO)C(=O)N[C@@H]([C@H](C)CC(=O)O)C(=O)N[C@@H](CC(=O)c2ccccc2N)C(=O)O[C@@H]1C | 12.5 (≈ 7.18 µM) | 6.25 (≈ 3.59 µM) | 0.78 (≈ 0.448 µM) | 1.56 (≈ 0.896 µM) | 12.5 (≈ 7.18 µM) | 6.25 (≈ 3.59 µM) | 0.78 (≈ 0.448 µM) | 1.56 (≈ 0.896 µM)
CCCCCCCCCC(=O)N[C@@H](Cc1c[nH]c2ccccc12)C(=O)N[C@H](CC(N)=O)C(=O)N[C@@H](CCO)C(=O)N[C@@H]1C(=O)NCC(=O)N[C@@H](CCCNCc2ccc(OCc3ccccc3)cc2O)C(=O)N[C@@H](CC(=O)O)C(=O)N[C@H](C)C(=O)N[C@@H](CC(=O)O)C(=O)NCC(=O)N[C@H](CO)C(=O)N[C@@H]([C@H](C)CC(=O)O)C(=O)N[C@@H](CC(=O)c2ccccc2N)C(=O)O[C@@H]1C | 100 (≈ 55 µM) | 6.25 (≈ 3.44 µM) | 3.13 (≈ 1.72 µM) | 12.5 (≈ 6.87 µM) | 50 (≈ 27.5 µM) | 1.56 (≈ 0.858 µM) | 1.56 (≈ 0.858 µM) | 25 (≈ 13.7 µM)
CCCCCCCCCC(=O)N[C@@H](Cc1c[nH]c2ccccc12)C(=O)N[C@H](CC(N)=O)C(=O)N[C@@H](CCO)C(=O)N[C@@H]1C(=O)NCC(=O)N[C@@H](CCCNCc2ccc(S(=O)(=O)N3CCN(c4ncccn4)CC3)cc2)C(=O)N[C@@H](CC(=O)O)C(=O)N[C@H](C)C(=O)N[C@@H](CC(=O)O)C(=O)NCC(=O)N[C@H](CO)C(=O)N[C@@H]([C@H](C)CC(=O)O)C(=O)N[C@@H](CC(=O)c2ccccc2N)C(=O)O[C@@H]1C | 12.5 (≈ 6.5 µM) | 3.13 (≈ 1.63 µM) | 0.78 (≈ 0.406 µM) | 1.56 (≈ 0.811 µM) | 6.25 (≈ 3.25 µM) | 3.13 (≈ 1.63 µM) | 0.39 (≈ 0.203 µM) | 1.56 (≈ 0.811 µM)
CCCCCCCCCC(=O)N[C@@H](Cc1c[nH]c2ccccc12)C(=O)N[C@H](CC(N)=O)C(=O)N[C@@H](CCO)C(=O)N[C@@H]1C(=O)NCC(=O)N[C@@H](CCCNCc2cccc(F)c2)C(=O)N[C@@H](CC(=O)O)C(=O)N[C@H](C)C(=O)N[C@@H](CC(=O)O)C(=O)NCC(=O)N[C@H](CO)C(=O)N[C@@H]([C@H](C)CC(=O)O)C(=O)N[C@@H](CC(=O)c2ccccc2N)C(=O)O[C@@H]1C | 12.5 (≈ 7.29 µM) | 12.5 (≈ 7.29 µM) | 0.78 (≈ 0.455 µM) | 0.56 (≈ 0.327 µM) | 12.5 (≈ 7.29 µM) | 6.25 (≈ 3.64 µM) | 0.78 (≈ 0.455 µM) | 1.56 (≈ 0.91 µM)
